# Reference: patent US20180177805A1, “Intravitreal Lysine Acetylsalicylate As Treatment For Diabetic Retinopathy” (Fundación Para El Fomento De La Investigación Sani taria Y …, priority 2015, published 2018)
# Key:
# retina = test system: retina; parameters: species or system Wistar rat; settings: rat, in vivo
# Method: For the intravitreal injection, the animals were anesthetized with a mixture in a proportion of 1:1 of xylazine hydrochloride (4 mg/kg) and ketamine hydrochloride (10 mg/kg). Under mydriasis with 0.5% tropicamide, the intravitreal injection of the lysine acetylsalicylate solution was carried out under a surgical microscope with a micro injection syringe (Hamilton Co., Reno, Nev.) and a 32 gauge needle at 1 millimeter from the temporal limbus. Only half the diabetic animals were treated with the intravitreal solution, the rest of the animals were left to develop diabetic retinopathy naturally. […] Summary of the organization of the experimental test: • Initially, the animals were evaluated prior to including them in the experimental test to discard those with defects or basic ocular changes. • The inducement of diabetes was carried out in all the animals by means of injecting intraperitoneal streptozotocin. • The blood sugar indices were compared at 24 and 48 hours of the injection to assess whether the inducement had been successful. • Once diabetes was confirmed, the animals were divided into two groups formed by 8 rats each. • Following the diabetic retinopathy model in rats, diabetes was left to develop naturally in both groups over the first 12 weeks. […]
# [1] = test system: ICAM-1 endothelial marker; assay: ICAM-1 endothelial cell count by immunohistochemistry in retina sections, streptozotocin diabetic retinopathy model, after intravitreal injection; assay type: in vivo, Wistar rat; settings: treated (CASE) diabetic rats
# Source text: 2. […] ICAM-1 is a transmembrane protein present in the endothelial cells and practically specific to them. Its immunohistochemical staining allows the endothelial cells present in the different layers of examined tissues to be quantitatively indicated and assessed and it gives us information concerning the vascularization of the examined tissues and the integrity of the vascular wall.
# (§1) Pursuant to approval of the Bioethics Committee for Research of the University of Miguel Hernandez de Elche and based on the international standards for the use of animal experimentation, […] confined male Wistar rat specimens weighing 200 grams were induced to suffer diabetes by means of injecting intraperitoneal streptozotocin (75 mg/kg) in a single dose. The animals were monitored during the whole study continuously in terms of weight, blood sugar, loss of hair and formation of cataracts. All the animals were exposed to the same parameters of light, darkness and availability of water and food.
# (§2) For the intravitreal injection, the animals were anesthetized with a mixture in a proportion of 1:1 of xylazine hydrochloride (4 mg/kg) and ketamine hydrochloride (10 mg/kg). Under mydriasis with 0.5% tropicamide, the intravitreal injection of the lysine acetylsalicylate solution was carried out under a surgical microscope with a micro injection syringe (Hamilton Co., Reno, Nev.) and a 32 gauge needle at 1 millimeter from the temporal limbus. Only half the diabetic animals were treated with the intravitreal solution, the rest of the animals were left to develop diabetic retinopathy naturally. The process of intravitreal injection was repeated in the same way, technique and dose in the same animals 4 weeks after the initial treatment. Summary of the organization of the experimental test: • Initially, the animals were evaluated prior to including them in the experimental test to discard those with defects or basic ocular changes. • The inducement of diabetes was carried out in all the animals by means of injecting intraperitoneal streptozotocin. • The blood sugar indices were compared at 24 and 48 hours of the injection to assess whether the inducement had been successful. • Once diabetes was confirmed, the animals were divided into two groups formed by 8 rats each. • Following the diabetic retinopathy model in rats, diabetes was left to develop naturally in both groups over the first 12 weeks.
# Laminar sections of the retina of all the animals were carried out, being exposed to the action of 4% formaldehyde preservatives. […] After fixing the different sections of stained tissue, the positively stained molecules and the amount of blood vessels present were counted under an optical microscope (Leica® microsystem) with 10× magnification. […]
# CD18 leucocyte marker = assay: CD18 leucocyte count by immunohistochemistry in retina sections, streptozotocin diabetic retinopathy model, after intravitreal injection; assay type: in vivo, Wistar rat; settings: for CD18 count: treated (CASE) diabetic rats
# Source text: 1. CD18 leucocyte marker: the leucocyte is the main effector cell of the inflammatory response of the tissues, something which also occurs in the retina. CD18 is a surface molecule which is expressed in the membranes of the leucocytes activated in tissues where there is inflammation, as is the case with the diabetic retina. Determine its absolute and relative number helps to know whether the injected solution is capable of reducing the presence of leucocytes activated in determined layers of the retina as part of their anti-inflammatory action.
# as §1, §2
# (§3) Laminar sections of the retina of all the animals were carried out, being exposed to the action of 4% formaldehyde preservatives. For the marking of the endothelial cells, an anti-ICAM1 monoclonal antibody was used, we also used anti-CD18 monoclonal antibodies for the staining of the leucocytes. After fixing the different sections of stained tissue, the positively stained molecules and the amount of blood vessels present were counted under an optical microscope (Leica® microsystem) with 10× magnification.
# (§4) For the purposes of assessing significant differences between the different regions of the retina, in all the tissues, the cell and vessel counts corresponding to the central retina (between optical nerve and macular area) and those corresponding to the peripheral retina (outside of the vascular arches) were carried out separately. These counts were specifically carried out on two layers of the retina: the external plexiform layer and the ganglion cell layer.
# The U Mann-Whitney contrast test was used for independent samples. To contrast the correlation between the variables, the Spearman test was used.
# [2] = test system: blood vessels of the retina; assay: Vascular density (blood vessel count per tissue section) in retina, streptozotocin diabetic retinopathy model, after intravitreal injection; assay type: in vivo, Wistar rat; settings: for VESSELS count: treated (CASE) diabetic rats
# Source text: 3. Vascular density: the chronic inflammation caused in diabetic retinopathy involves obliteration and death of the blood vessels. […] This scenario is a final stage of the phenomenon known as diabetic microangiopathy. Thus, determining the number of vessels present in each section of tissue can give us information concerning whether or not the medicament is capable of positively or negatively influencing the capillary density of the retina (vessels/portion of tissue).
# as §1, §2, §3
# as §4, with “layer. […]” for “layer.”
# [3] = central retina, external plexiform layer, 25 micrograms intravitreal at weeks 12 and 16, sacrifice week 20
# [4] = peripheral retina, external plexiform layer
# [5] = peripheral retina, ganglion layer
# [6] = treated animals, central retina (text says plexiform layer), range 3-6
smiles,measurement,setting,value
CC(=O)Oc1ccccc1C(=O)O [lysine acetylsalicylate],"signs of medicament toxicity (de-structuring of retinal layers, absence of photoreceptor cells, histological alterations of optical nerve)",retina,No tissues were found to have signs that showed alterations suggesting toxicity
same,ICAM1 count,[1]; [3],15.0 (14.0-17.5)
same,ICAM1 count,"[1]; central retina, ganglion layer",4.0 (3.0-5.0)
same,ICAM1 count,[1]; [4],9.0 (7.0-11.0)
same,ICAM1 count,[1]; [5],2.0 (1.3-3.0)
same,CD18 count,CD18 leucocyte marker; [3],16.5 (14.0-18.0)
same,CD18 count,"CD18 leucocyte marker; central retina, ganglion layer",5.0 (3.0-6.0)
same,CD18 count,CD18 leucocyte marker; [4],8.0 (6.0-9.0)
same,CD18 count,CD18 leucocyte marker; [5],3.0 (2.0-4.0)
same,"CD18 count, average",CD18 leucocyte marker; [6],5
same,leucocytes per field relative to number expected from vessel count (regression model),"CD18 leucocyte marker; treated group, central retina, expected at least 10 leucocytes per field",half the leucocytes which would be expected
same,VESSELS count,[2]; [3],9.0 (7.0-11.0)
same,VESSELS count,"[2]; central retina, ganglion layer",5.0 (2.8-6.0)
same,VESSELS count,[2]; [4],6.0 (5.0-7.0)
same,VESSELS count,[2]; [5],3.0 (1.8-4.0)
same,"vessels per tissue section, average",[2]; [6],5
